Measurements from US4859696A, “Precutaneous absorption accelerator and preparation containing same” (Kao Corporation, priority 1984, dated 1989).

What was measured:
[1] = Change in blood sugar level after rectal administration of insulin solutions to rabbits; assay type: in vivo, rabbit (Japanese white male)
Procedure: Japanese white male rabbits weighing about 2.5 kg, fasted for 24 hours, were fixed at the back, and each of solutions shown in Table 1 was administered to the rectum of about 2.5 cm from the anus using a tube. Cannule was inserted into the femoral vein of the hind leg to collect about 0.2 ml each of blood in every fixed time interval. Blood sugar level was measured using destrostick. Change in blood sugar level was determined with the passage of time, as the blood sugar level prior to administration being rendered 100%.

[2] = Test of percutaneous absorption of indomethacin; assay type: in vivo, rabbit (Japanese white female); details: as compared to the comparative preparations
Procedure: Topical agents containing indometacin shown below were prepared and percutaneous absorption was examined with the topical agents.
Seven (7) Japanese white female rabbits weighing about 3 kg were used as one group. The topical agents of the present invention and the comparative preparations were applied onto the normal abdominal skin (10 cm×14 cm) of the rabbits in each group, from which the body hair was cut, respectively, at a dose corresponding to 20 mg of indomethacin. Blood was collected from the vein of the ear after 4, 10 and 20 hours and, blood concentration of indomethacin was measured.

carrageenin caused edema = experiment: Inhibition of carrageenin caused edema on the paw of the rat; assay type: in vivo, rat (Wistar male); details: as compared to the comparative preparation
Procedure: With respect to the topical agents of the present invention, the pharmacological effect was examined according to the inhibition of carrageenin caused edema on the paw of the rat.
Wistar male 10 rats, weighing about 110 g, were used as one group. The volume of the right rear paw of the rats in each group was previously measured using a branched glass container. A 1% carrageenin aqueous solution was subcutaneously injected to the right rear paw sole in a dose of 0.125 ml. Immediately thereafter 0.3 g of indomethacin topical agents were applied to the skin of the right rear paw sole. In the control group, carrageenin alone was injected. Then, the volume of the rear paw was measured every 90 minutes, which was continued until 6 hours after. The rate of edema and the inhibition rate of edema were calculated as described below. [formula]

[3] = Test for percutaneous absorption of methyl salicylate (cataplasms); assay type: in vivo, rabbit (Japanese white female); details: as compared to the cataplasm for comparison
Procedure: Cataplasms shown below were prepared and, the percutaneous absorption of methyl salicylate was tested.
Seven (7) Japanese white female rabbits weighing about 3 kg were used as one group. […] Blood was collected from the vein of the femur after 3, 6, 10, 20 and 30 hours and, blood concentration of methyl salicylate was measured.

[4] = 15 mins., this invention, ether derivative 0.1 g with insulin 10/kg, saline 0.65 g, ethanol 0.25 g
[5] = 30 mins., this invention, ether derivative 0.1 g with insulin 10/kg, saline 0.65 g, ethanol 0.25 g
[6] = 45 mins., this invention, ether derivative 0.1 g with insulin 10/kg, saline 0.65 g, ethanol 0.25 g
[7] = 60 mins., this invention, ether derivative 0.1 g with insulin 10/kg, saline 0.65 g, ethanol 0.25 g
[8] = 90 mins., this invention, ether derivative 0.1 g with insulin 10/kg, saline 0.65 g, ethanol 0.25 g
[9] = 120 mins., this invention, ether derivative 0.1 g with insulin 10/kg, saline 0.65 g, ethanol 0.25 g

1-O-methyl-branched isostearyl-3-O-methyl-2-O-2',3'-dihydroxypropylglycerol
Rate of Change in Blood Sugar Level before Administration [1, 4]: -17.8%
Rate of Change in Blood Sugar Level before Administration [1, 5]: -18.3%
Rate of Change in Blood Sugar Level before Administration [1, 6]: -24.5%
Rate of Change in Blood Sugar Level before Administration [1, 7]: -28.6%
Rate of Change in Blood Sugar Level before Administration [1, 8]: -21.9%
Rate of Change in Blood Sugar Level before Administration [1, 9]: -19.8%

CCCCCCCCCCCCOCC(COC)OCC(O)CO (stereo not drawn) [1-O-n-dodecyl-3-O-methyl-2-O-2',3'-dihydroxypropylglycerol]
percutaneous absorption of indomethacin (in words) [2]: extremely high percutaneous absorption of indomethacin
rate of preventing the edema / pharmacological effect of indomethacin (in words) (carrageenin caused edema): extremely high pharmacological effect of indomethacin
percutaneous absorption of methyl salicylate (in words) [3]: extremely high percutaneous absorption of methyl salicylate
Rate of Change in Blood Sugar Level before Administration ([1]; 15 mins., control, ether derivative 1 g): +6.5%
Rate of Change in Blood Sugar Level before Administration ([1]; 15 mins., this invention, ether derivative 0.05 g with insulin 10/kg, saline 0.70 g, ethanol 0.25 g): -13.4%
Rate of Change in Blood Sugar Level before Administration [1, 4]: -19.2%
Rate of Change in Blood Sugar Level before Administration ([1]; 30 mins., control, ether derivative 1 g): +10.2%
Rate of Change in Blood Sugar Level before Administration ([1]; 30 mins., this invention, ether derivative 0.05 g with insulin 10/kg, saline 0.70 g, ethanol 0.25 g): -18.6%
Rate of Change in Blood Sugar Level before Administration [1, 5]: -28.9%
Rate of Change in Blood Sugar Level before Administration ([1]; 45 mins., control, ether derivative 1 g): +9.8%
Rate of Change in Blood Sugar Level before Administration ([1]; 45 mins., this invention, ether derivative 0.05 g with insulin 10/kg, saline 0.70 g, ethanol 0.25 g): -25.2%
Rate of Change in Blood Sugar Level before Administration [1, 6]: -32.7%
Rate of Change in Blood Sugar Level before Administration ([1]; 60 mins., control, ether derivative 1 g): +9.5%
Rate of Change in Blood Sugar Level before Administration ([1]; 60 mins., this invention, ether derivative 0.05 g with insulin 10/kg, saline 0.70 g, ethanol 0.25 g): -27.6%
Rate of Change in Blood Sugar Level before Administration [1, 7]: -28.0%
Rate of Change in Blood Sugar Level before Administration ([1]; 90 mins., control, ether derivative 1 g): +9.5%
Rate of Change in Blood Sugar Level before Administration ([1]; 90 mins., this invention, ether derivative 0.05 g with insulin 10/kg, saline 0.70 g, ethanol 0.25 g): -25.8%
Rate of Change in Blood Sugar Level before Administration [1, 8]: -19.5%
Rate of Change in Blood Sugar Level before Administration ([1]; 120 mins., control, ether derivative 1 g): +10.2%
Rate of Change in Blood Sugar Level before Administration ([1]; 120 mins., this invention, ether derivative 0.05 g with insulin 10/kg, saline 0.70 g, ethanol 0.25 g): -22.4%
Rate of Change in Blood Sugar Level before Administration [1, 9]: -18.2%

Insulin: Insulin 10/kg in 25% Ethanol solution (control of Table 1)
Rate of Change in Blood Sugar Level before Administration ([1]; 15 mins., control, insulin 10/kg in 25% ethanol solution): +5.0%
Rate of Change in Blood Sugar Level before Administration ([1]; 30 mins., control, insulin 10/kg in 25% ethanol solution): +12.9%
Rate of Change in Blood Sugar Level before Administration ([1]; 45 mins., control, insulin 10/kg in 25% ethanol solution): +11.5%
Rate of Change in Blood Sugar Level before Administration ([1]; 60 mins., control, insulin 10/kg in 25% ethanol solution): +4.8%
Rate of Change in Blood Sugar Level before Administration ([1]; 90 mins., control, insulin 10/kg in 25% ethanol solution): +1.5%
Rate of Change in Blood Sugar Level before Administration ([1]; 120 mins., control, insulin 10/kg in 25% ethanol solution): +2.7%
